In patent US4812483A, “Insecticidal alkenes” (Imperial Chemical Industries PLC, priority 1985, dated 1989) one finds mortality data, which are given here for 18 compounds.

Each structure is given as a SMILES string.

What all share (assay type): in vivo
Assay [1] deals with Heliothis viriscens (tobacco budworm). Description: whole plant or invertebrate. To be noted: in Gossypium hirsutum, 72 h, read-out: grading of mortality, HV. As to the method:
(§1) The activity of the compound was determined using a variety of insect pests. The compound was used in the form of liquid preparations containing 500 parts per million (ppm) by weight of the compound. The preparations were made by dissolving the compound in acetone and diluting the solutions with water containing 0.01% by weight of a wetting agent sold under the trade name "LISSAPOL" NX until the liquid preparations contained the required concentration of the compound. "Lissapol" is a Registered Trade Mark.
(§2) The test procedure adopted with regard to each pest was basically the same and comprised supporting a number of the pests on a medium which was usually a host plant or a foodstuff on which the pests feed, and treating either or both the pests and the medium with the preparations. The mortality of the pests was then assessed at periods usually varying from one to three days after the treatment.
(§3) The results of the tests are given in Table III for each of the compounds, at the rate in parts per million given in the second column as a grading of mortality designated as A, B or C wherein A indicates 80-100% mortality or knockdown, B indicates 50-79% mortality or knockdown and C indicates less than 50% mortality or knockdown.
(§4) In Table III the pest organism used is designated by a letter code and the pests species, the support medium or food, and the type and duration of test is given in Table II.

Assay [2] has as its system Diabrotica balteata (rootworm larvae). Description: Residual test, mortality of rootworm larvae (DB). To be noted: 72 h, filter paper/maize seed, 3 days, read-out: grading of mortality, DB. The procedure:
as §1, §2, §3, §4

For a further assay, the system named is Myzus persicae (aphids). Description: Contact test, mortality of aphids (MP). As to conditions: 48 h, leaf, 2 days, read-out: grading of mortality, MP. The procedure: as §1, §2, §3, §4
Assay [3] has as its system Blattella germanica (cockroach nymphs). Description: Residual test, mortality of cockroach nymphs (BG). As to conditions: 72 h, plastic pot, 3 days, read-out: grading of mortality, BG. As to the method:
as §1, §2, §3, §4

For assay [4], the system named is Tetranychus urticae (red spider mites - adult). Description: Contact test, mortality of red spider mites (TU). To be noted: 72 h, French bean leaf, 3 days, read-out: grading of mortality, TU. The procedure: as §1, §2, §3, §4
(red spider mites - adult)

The subject of assay [5] is Nilaparvata lugens (green leaf hopper). Description: Contact test, mortality of Nilaparvata lugens (NL). To be noted: 144 h, cabbage leaf, 6 days, read-out: grading of mortality, NL. As to the method:
as §1, §2, §3, §4

The test system of assay [6] is Musca domestica (houseflies - adults). Description: Contact test, mortality of houseflies (MD). To be noted: 24 h, cotton wool/sugar, 1 day, read-out: grading of mortality, MD. As to the method: as §1, §2, §3, §4
Assay [7] relates to Chilo partellurs (Stem borers). Description: Residual test, mortality of stem borers (CP). To be noted: 72 h, oil seed rape leaf, 3 days, read-out: grading of mortality, CP. The procedure:
as §1, §2, §3, §4

As for `C=CC(C)(CC)COCc1cccc(Oc2ccccc2)c1` (stereo not drawn) [Compound 8, 3-Ethyl-3-methyl-4(3-phenoxybenzyloxy)but-1-ene], the mortality at 500 ppm is below 50% in assay [1]; 80 to 100% in assay [2]; below 50% in the assay on Myzus persicae (aphids); below 50% in assay [3]; 80 to 100% in assay [4]; 80 to 100% in assay [5]. Further, in assay [6], the mortality at 500 ppm lay in the range of 80 to 100%.
On to `CC(C)(C=C(F)Cl)COCc1cccc(Oc2ccccc2)n1` [Compound 19, E,Z-2,2-dimethyl-1-(6-phenoxypyrid-2-yl)methoxy-4-chloro-4-fluorobut-3-ene], for which the mortality at 500 ppm is below 50% in assay [1]; 80 to 100% in assay [2]; 50 to 79% in the assay on Myzus persicae (aphids); 50 to 79% in assay [3]; 50 to 79% in assay [4]; 80 to 100% in assay [5].
As to `CC(C)(C=C(Cl)Cl)COCc1cccc(Oc2ccccc2)c1` [Compound 4, 2,2-dimethyl-1-(3-phenoxybenzyloxy)-4,4-dichlorobut-3-ene], the mortality at 500 ppm was below 50% in assay [1]; below 50% in assay [2]; below 50% with Myzus persicae (aphids); below 50% in assay [3]; below 50% in assay [4]; 80 to 100% in assay [5]. Besides, the mortality at 500 ppm in assay [6] was below 50%.
On to `CC(C)(C=C(F)F)COCc1cccc(Oc2ccccc2)c1` [Compound 17], for which the mortality at 500 ppm in assay [1] was below 50%; in assay [2], 80 to 100%; in the assay with Myzus persicae (aphids) it was below 50%; in assay [3] it was 80 to 100%; in assay [4], below 50%; in assay [5], 80 to 100%.
In the case of `CC(C)(C=C(F)F)COCc1ccc(F)c(Oc2ccccc2)c1` [Compound 15, 2,2-dimethyl-1-(4-fluoro-3-phenoxybenzyloxy)-4,4-difluorobut-3-ene], the mortality at 500 ppm (in assay [1]; in assay [2]; with Myzus persicae (aphids); in assay [3]; in assay [4]; in assay [5]) was 80 to 100% in each case. For the same compound, the mortality at 500 ppm in assay [6] fell in the range of 80 to 100%.
With `C=CC(C)(C)COCc1cccc(Oc2ccccc2)n1` [Compound 12, 3,3-Dimethyl-4-(6-phenoxypyrid-2-yl)methoxy-but-1-ene], the mortality at 500 ppm was below 50% in assay [1]; 80 to 100% in assay [2]; below 50% with Myzus persicae (aphids); below 50% in assay [3]; below 50% in assay [4]; 80 to 100% in assay [5]. The mortality at 500 ppm in assay [6] was below 50%.
Take `C=CC(C)(C)COCc1ccc(F)c(Oc2ccccc2)c1` [Compound 5, 3,3-dimethyl-4-(4-fluoro-3-phenoxybenzyloxy)but-1-ene]: the mortality at 500 ppm in assay [1] was below 50%; in assay [2] it was 80 to 100%; in the assay on Myzus persicae (aphids), 80 to 100%; in assay [3] it was 80 to 100%; in assay [4] it was 80 to 100%; in assay [5], 80 to 100%. For the same compound, the mortality at 500 ppm in assay [6] is 80 to 100%.
With `CC(C)(C=C(Cl)Cl)COCc1cccc(Oc2ccccc2)n1` [Compound 13, 2,2-dimethyl-1-(6-phenoxypyrid-2-yl)methoxy-4,4-dichlorobut-3-ene], the mortality at 500 ppm in assay [1] is 80 to 100%; in assay [2] it was 80 to 100%; in the assay on Myzus persicae (aphids), 50 to 79%; in assay [3], 80 to 100%; in assay [4] it was below 50%; in assay [5], 80 to 100%. The mortality at 500 ppm in assay [6] lay within 50 to 79%.
For `ClC(Cl)=CC1(COCc2cccc(Oc3ccccc3)c2)CC1` [Compound 9, 1-(2,2-dichlorovinyl)-1-(3-phenoxybenzyloxymethyl)cyclopropane], the mortality at 500 ppm is below 50% in assay [1]; 50 to 79% in assay [2]; 80 to 100% in the assay on Myzus persicae (aphids); 50 to 79% in assay [3]; below 50% in assay [4]; 80 to 100% in assay [5]. Moreover, in assay [6], the mortality at 500 ppm was in the range of 80 to 100%.
For the compound `CC(C)(C=C(Cl)Cl)COCc1ccc(F)c(Oc2ccccc2)c1` [Compound 1, 2,2-dimethyl-1-(4-fluoro-3-phenoxybenzyloxy)-4,4-dichlorobut-3-ene], the mortality at 500 ppm in assay [1] is 80 to 100%; in assay [2], 80 to 100%; in the assay with Myzus persicae (aphids) it was below 50%; in assay [3], 80 to 100%; in assay [7] it was 80 to 100%; in assay [5], 80 to 100%. The mortality at 500 ppm in assay [6] was in the range of 80 to 100%.
With `CC(C)(C=C(F)F)COCc1cccc(Oc2ccccc2)n1` [Compound 16, 2,2-dimethyl-1-(6-phenoxypyrid-2-yl)methoxy-1,1-difluorobut-1-ene], the mortality at 500 ppm (in assay [1]; in assay [2]; in the assay on Myzus persicae (aphids); in assay [3]; in assay [4]; in assay [5]) was 80 to 100% throughout.
Turning to `CC(C)(C=C(F)F)COCc1ccc(F)c(Cc2ccccc2)c1` [Compound 18], the mortality at 500 ppm in assay [1] is 80 to 100%; in assay [2], 80 to 100%; with Myzus persicae (aphids), below 50%; in assay [3], 80 to 100%; in assay [4] it was 50 to 79%; in assay [5], 80 to 100%.
Turning to `CC(C)(C=C(Br)Br)COCc1cccc(Oc2ccccc2)c1` [Compound 3, 2,2-dimethyl-1-(3-phenoxybenzyloxy)-4,4-dibromobut-3-ene], the mortality at 500 ppm in assay [1] is below 50%; in assay [2] it was below 50%; with Myzus persicae (aphids), below 50%; in assay [3], below 50%; in assay [7], 80 to 100%; in assay [5] it was 50 to 79%. In addition, the mortality at 500 ppm in assay [6] was below 50%.
On to `C=CC(C)(C)COCc1cccc(Oc2ccccc2)c1` [Compound 2, 3,3-Dimethyl-4-(3-phenoxybenzyloxy)but-1-ene], for which the mortality at 500 ppm was below 50% in assay [1]; 80 to 100% in assay [2]; below 50% in the assay with Myzus persicae (aphids); below 50% in assay [3]; 80 to 100% in assay [5]; 80 to 100% in assay [6].
On to `C=CC(C)(C)COCc1ccc(F)c(Cc2ccccc2)c1` [Compound 14, 3,3-Dimethyl-4-(3-benzyl-4-fluorobenzyloxy)but-1-ene], for which the mortality at 500 ppm is below 50% in assay [1]; 80 to 100% in assay [2]; below 50% in the assay on Myzus persicae (aphids); 50 to 79% in assay [3]; below 50% in assay [4]; 80 to 100% in assay [5]. Besides, the mortality at 500 ppm in assay [6] lay in the range of 80 to 100%.
Take `CC(C)(C=C(F)Cl)COCc1cccc(Oc2ccccc2)c1` [Compound 11, Z,E-2,2-dimethyl-1-(3-phenoxybenzyloxy)-4-chloro-4-fluorobut-3-ene]: the mortality at 500 ppm in assay [1] was 50 to 79%; in assay [2] it was 80 to 100%; in the assay with Myzus persicae (aphids) it was below 50%; in assay [3] it was 50 to 79%; in assay [4], below 50%; in assay [5], 80 to 100%. The mortality at 500 ppm in assay [6] lay within 50 to 79%.
For `CC(C)(C=C(Cl)Cl)COCc1ccc(F)c(Cc2ccccc2)c1` [Compound 20, 2,2-dimethyl-1-(3-benzyl-4-fluorobenzyloxy)-4,4-dichlorobut-3-ene], the mortality at 500 ppm was below 50% in assay [1]; below 50% in assay [2]; below 50% in the assay on Myzus persicae (aphids); below 50% in assay [3]; below 50% in assay [4]; 80 to 100% in assay [5].
Consider `CC(C)(C=CCl)COCc1cccc(Oc2ccccc2)c1` [Compound 10, 2,2-dimethyl-1-(3-phenoxybenzyloxy)-4-chlorobut-3-ene], for which the mortality at 500 ppm in assay [2] was 80 to 100%; in the assay with Myzus persicae (aphids), below 50%; in assay [3], below 50%; in assay [7], below 50%; in assay [4], below 50%; in assay [5], 80 to 100%. Also, the mortality at 500 ppm in assay [6] is 50 to 79%.
